The target in one assay is human MC3R. In words: Human MC3R radioligand binding assay ([125I] NDP-MSH). As to conditions: Table 6, hMCR binding selectivity. The procedure:
(§1) Radioligand binding assays were carried out using commercial or in-house prepared hMC1 R, hMC3R and hMC4R membranes and [^125I]
(§2) In-house plasma membranes were prepared from transfected mammalian cells (prepared as in Example 109, using plasmid DNA containing the human MC1 R, MC3R or MC4R gene or other gene of interest in a plasmid vector with a mammalian origin of replication): • Adherent cells were washed with warm Hanks buffered saline solution (HBSS). 1 mL of cold HBSS was added to each flask and the cells were scraped off with a rubber policeman. The scraped cells were added to a 50 mL tube on ice. The plates were then rinsed twice with 5 mL cold HBSS and this was also added to the tube. The cells were centrifuged at 1000 x g for 5 mins in a bench top centrifuge and the supernatant was decanted. The remaining cell pellet was resuspended in 0.25 M sucrose. The cell suspension was centrifuged again as previously and the pellet resuspended in 5 mL of 0.25 M sucrose containing protease inhibitors. The cells were homogenised by a 10 second pulse with an Ika disperser followed by 30 seconds on ice. The homogenisation and ice incubation was repeated three times. The mixture was then centrifuged at 1260 x g for 5 mins. […]

The next assay deals with human MC1R. In words: Human MC1R radioligand binding assay ([125I] NDP-MSH). As to conditions: Table 6, hMCR binding selectivity. The procedure: as §1, §2
The target of a further assay is human MC4R. In words: Human MC4R radioligand binding assay ([125I] NDP-MSH). As to conditions: Table 6, hMCR binding selectivity. The procedure:
as §1, §2

The next assay addresses T1, human MC5R (Homo sapiens, UniProt P33032).
T1 construct: purchased Perkin Elmer RBXMC5M400UA
In words: Human MC5R radioligand binding assay ([125I] NDP-MSH displacement, hMC5R membranes). As to conditions: hMC5R assay as in Example 102; compounds tested as trifluoroacetate or hydrochloride salts, or as free base. An outline of the steps:
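Bound ligand collected by filtration on PEI-soaked GF/A filters and counted. Data fitted to a single-site competition model with fixed Hill coefficient to give EC50.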

SMILES strings stand for the structures.

These results are taken from patent EP2257297B1, “COMPOUNDS FOR USE IN THE TREATMENT OF ACNE, SEBORRHOEA AND SEBHORROEIC DERMATITIS, OR FOR REDUCING SEBUM SECRETION” (priority 2008, dated 2009).

By IC50 is commonly meant the concentration that gives 50% inhibition.

T1 sequence (P33032 whole entry): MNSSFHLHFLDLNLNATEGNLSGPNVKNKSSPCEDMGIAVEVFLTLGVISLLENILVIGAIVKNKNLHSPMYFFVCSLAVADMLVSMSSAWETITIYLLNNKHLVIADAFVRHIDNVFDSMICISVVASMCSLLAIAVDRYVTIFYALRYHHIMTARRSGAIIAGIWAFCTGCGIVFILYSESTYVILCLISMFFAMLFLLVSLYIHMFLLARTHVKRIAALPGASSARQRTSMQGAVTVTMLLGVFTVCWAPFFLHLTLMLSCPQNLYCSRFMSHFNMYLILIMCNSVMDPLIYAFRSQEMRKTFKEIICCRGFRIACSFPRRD

Turning to `CCC(CC)CN1CC[C@@H](CNC(=O)/C=C/c2ccc(Cl)cc2)N[C@@H](CCN2CCCCC2)C1=O` [Compound 348, (E)-3-(4-chlorophenyl)-N-(((3S,5S)-1-(2-ethylbutyl)-2-oxo-3-(2-(piperidin-1-yl)ethyl)-1,4-diazepan-5-yl)methyl)acrylamide], the IC50 at human MC3R was 1.83 µM.
On to `N=C(N)NCCC[C@@H]1N[C@H](CNC(=O)c2ccc3ccccc3c2)CCN(CC(c2ccccc2)c2ccccc2)C1=O` [Compound 105, N-(((3S,5S)-1-(2,2-diphenylethyl)-3-(3-guanidinopropyl)-2-oxo-1,4-diazepan-5-yl)methyl)-2-naphthamide], for which the IC50 on human MC1R came out at 6.66 µM; on human MC4R, 3.28 µM.
Take `O=C(/C=C/c1ccc(Cl)cc1)NC[C@@H]1CCN(CC(c2ccccc2)c2ccccc2)C(=O)[C@H](CCN2CCCCC2)N1` [Compound 33, (E)-3-(4-chlorophenyl)-N-(((3S,5S)-1-(2,2-diphenylethyl)-2-oxo-3-(2-(piperidin-1-yl)ethyl)-1,4-diazepan-5-yl)methyl)acrylamide]: the IC50 on human MC1R came out at 2.85 µM; on human MC4R it was 6.06 µM; at human MC3R it was 1.5 µM.
For `NCCCC[C@@H]1N[C@H](CNC(=O)c2ccc3ccccc3c2)CCN(CC(c2ccccc2)c2ccccc2)C1=O` [Compound 126, N-(((3S,5S)-3-(4-aminobutyl)-1-(2,2-diphenylethyl)-2-oxo-1,4-diazepan-5-yl)methyl)-2-naphthamide], the IC50 on human MC5R was below 1 µM.
Same read-out and setting: the figure for `CN(C[C@@H]1CCN(CC(c2ccccc2)c2ccccc2)C(=O)[C@H](CCCN)N1)C(=O)c1ccc2cc(Br)ccc2c1` [Compound 60, N-(((3S,5S)-3-(3-aminopropyl)-1-(2,2-diphenylethyl)-2-oxo-1,4-diazepan-5-yl)methyl)-6-bromo-N-methyl-2-naphthamide] is below 10 µM.
